# In US11661410B2 (GLOBAL BLOOD THERAPEUTICS, INC., priority 2017, dated 2023):
# Target: G9a (Homo sapiens (Human), UniProt Q96KQ7)
# Test: G9a AlphaLISA enzymatic activity assay
# Assay type: biochemical
# Conditions: not given
# Chain of G9a (Q96KQ7 whole entry): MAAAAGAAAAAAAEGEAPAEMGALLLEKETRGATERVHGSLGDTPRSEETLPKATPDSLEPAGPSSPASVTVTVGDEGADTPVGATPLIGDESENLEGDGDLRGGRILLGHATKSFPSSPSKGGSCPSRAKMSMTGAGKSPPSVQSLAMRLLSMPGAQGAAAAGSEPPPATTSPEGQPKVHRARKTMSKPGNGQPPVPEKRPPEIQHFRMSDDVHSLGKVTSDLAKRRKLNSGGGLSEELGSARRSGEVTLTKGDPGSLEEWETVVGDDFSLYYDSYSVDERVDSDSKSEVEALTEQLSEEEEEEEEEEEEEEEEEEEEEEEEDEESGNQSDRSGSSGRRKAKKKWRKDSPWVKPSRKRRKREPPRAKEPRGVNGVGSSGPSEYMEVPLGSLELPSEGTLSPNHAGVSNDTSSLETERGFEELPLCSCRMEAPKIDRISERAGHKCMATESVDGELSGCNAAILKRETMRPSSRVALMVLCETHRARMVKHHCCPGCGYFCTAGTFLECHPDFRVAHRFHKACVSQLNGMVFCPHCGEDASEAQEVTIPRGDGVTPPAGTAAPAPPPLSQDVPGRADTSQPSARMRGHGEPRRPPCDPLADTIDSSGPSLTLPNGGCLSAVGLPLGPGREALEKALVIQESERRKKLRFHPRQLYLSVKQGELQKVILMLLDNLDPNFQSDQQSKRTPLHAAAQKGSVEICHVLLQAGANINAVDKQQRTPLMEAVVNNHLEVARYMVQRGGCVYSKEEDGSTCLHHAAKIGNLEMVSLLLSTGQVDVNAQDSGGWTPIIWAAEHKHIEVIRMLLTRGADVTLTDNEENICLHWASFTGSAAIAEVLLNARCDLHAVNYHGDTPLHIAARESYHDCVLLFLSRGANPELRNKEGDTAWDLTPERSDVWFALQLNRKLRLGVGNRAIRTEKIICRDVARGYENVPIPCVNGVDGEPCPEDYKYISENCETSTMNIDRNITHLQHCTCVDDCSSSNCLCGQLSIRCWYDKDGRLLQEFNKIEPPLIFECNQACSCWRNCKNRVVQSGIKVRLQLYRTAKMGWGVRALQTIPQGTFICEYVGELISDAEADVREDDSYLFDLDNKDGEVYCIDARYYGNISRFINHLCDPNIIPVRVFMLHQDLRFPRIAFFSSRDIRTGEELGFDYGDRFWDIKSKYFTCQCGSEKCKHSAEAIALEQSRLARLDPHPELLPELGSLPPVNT
row,Compound,pIC50
1,"N-[(azetidin-3-yl)methyl]-6,7-dimethoxy-1H,2H,3H-cyclopenta[b]quinolin-9-amine—2HCl [Example 8]",7.27

# Same assay, conditions: G9a AlphaLISA; negative log of the IC50 value in molar
Compound,pIC50,IC50 [µM]
COc1cc2nc3c(c(N[C@@H]4CCCCNC4)c2nc1OC)CCC3 [Example 402],7.1,–
"COc1cc2nc3c(c(NCCNC(C)C)c2cc1OC)CCC3 [Example 403, 6,7-dimethoxy-N-{2-[(propan-2-yl)amino]ethyl}-1H,2H,3H-cyclopenta[b]quinolin-9-amine]",7.5,–
"COc1cc2nc3c(c(N[C@@H]4CCCCN(C)C4)c2nc1OC)CCC3 [Example 404, (3R)-N-[2,3-dimethoxy-6H,7H,8H-cyclopenta[b]1,5-naphthyridin-9-yl]-1-methylazepan-3-amine]",6.6,–
"[2H]C([2H])([2H])Oc1cc2nc3c(c(N[C@@H]4CCCNC4)c2cc1OC([2H])([2H])[2H])CCC3 [Example 405, (3R)-N-[6,7-di(2H3)methoxy-1H,2H,3H-cyclopenta[b]quinolin-9-yl]piperidin-3-amine]",–,0.0126
"CCOc1cc2nc3c(c(N[C@@H]4CCCNC4)c2cc1OCC)CCC3 [Example 406, (3R)-N-[6,7-di(2H3)ethoxy-1H,2H,3H-cyclopenta[b]quinolin-9-yl]piperidin-3-amine]",–,> 10
"CCOc1cc2nc3c(c(N[C@@H]4CCCNC4)c2cc1OC)CCC3 [Example 407, (3R)-N-{6-ethoxy-7-methoxy-1H,2H,3H-cyclopenta[b]quinolin-9-yl}piperidin-3-amine]",7,–
"COc1cc2nc3c(c(N[C@@H]4CNC[C@H](C)C4)c2cc1OC)CCC3 [Example 408, (3S,5R)-N-{6,7-dimethoxy-1H,2H,3H-cyclopenta[b]quinolin-9-yl}-5-methylpiperidin-3-amine]",6.9,–
"COc1cc2nc3c(c(N[C@H]4CNC[C@H](C)C4)c2cc1OC)CCC3 [Example 409, (3R,5R)-N-{6,7-dimethoxy-1H,2H,3H-cyclopenta[b]quinolin-9-yl}-5-methylpiperidin-3-amine]",7.9,–
"COc1cc2nc3c(c(N[C@H]4CNCC(F)(F)C4)c2cc1OC)CCC3 [Example 410, (3R)-N-{6,7-dimethoxy-1H,2H,3H-cyclopenta[b]quinolin-9-yl}-5,5-difluoropiperidin-3-amine]",–,> 10
"COc1cc2nc3c(c(NC[C@@H]4C[C@H](F)CN4)c2cc1OC)CCC3 [Example 411, N-{[(2S,4S)-4-fluoropyrrolidin-2-yl]methyl}-6,7-dimethoxy-1H,2H,3H-cyclopenta[b]quinolin-9-amine]",6.3,–
"COc1cc2nc3c(c(N[C@H]4CNC[C@@H](F)C4)c2cc1OC)CCC3 [Example 412, (3R,5S)-N-{6,7-dimethoxy-1H,2H,3H-cyclopenta[b]quinolin-9-yl}-5-fluoropiperidin-3-amine]",6.5,–
"COc1cc2nc3c(c(N[C@@H]4CNCC(F)(F)C4)c2cc1OC)CCC3 [Example 413, (3S)-N-{6,7-dimethoxy-1H,2H,3H-cyclopenta[b]quinolin-9-yl}-5,5-difluoropiperidin-3-amine]",–,> 10
"COc1cc2nc3c(c(N[C@H]4CNCC(C)(C)C4)c2cc1OC)CCC3 [Example 414, (3R)-N-{6,7-dimethoxy-1H,2H,3H-cyclopenta[b]quinolin-9-yl}-5,5-dimethylpiperidin-3-amine]",7.2,–
"COc1cc2nc3c(c(N[C@@H]4CNCC(C)(C)C4)c2cc1OC)CCC3 [Example 415, (3S)-N-{6,7-dimethoxy-1H,2H,3H-cyclopenta[b]quinolin-9-yl}-5,5-dimethylpiperidin-3-amine]",–,> 10
"COc1cc2nc3c(c(N[C@H]4CNC[C@H](F)C4)c2cc1OC)CCC3 [Example 416, (3R,5R)-N-{6,7-dimethoxy-1H,2H,3H-cyclopenta[b]quinolin-9-yl}-5-fluoropiperidin-3-amine]",6.9,–

# Target: muscarinic M2 receptor (Homo sapiens (Human), UniProt P08172)
# Sequence (P08172 whole entry): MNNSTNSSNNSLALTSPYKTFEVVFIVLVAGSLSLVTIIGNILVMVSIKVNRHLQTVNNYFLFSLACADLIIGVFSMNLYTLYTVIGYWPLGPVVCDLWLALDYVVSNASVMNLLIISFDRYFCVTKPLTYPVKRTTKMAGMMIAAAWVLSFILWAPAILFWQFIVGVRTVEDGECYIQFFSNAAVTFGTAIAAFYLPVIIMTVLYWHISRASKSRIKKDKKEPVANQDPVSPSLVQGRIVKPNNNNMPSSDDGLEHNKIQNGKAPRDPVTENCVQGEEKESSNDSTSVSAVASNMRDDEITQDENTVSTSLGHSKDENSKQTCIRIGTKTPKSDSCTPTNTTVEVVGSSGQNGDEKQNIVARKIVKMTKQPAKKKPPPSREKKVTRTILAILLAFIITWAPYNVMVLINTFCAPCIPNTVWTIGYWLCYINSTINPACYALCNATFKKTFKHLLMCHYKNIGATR
# Test: Safety pharmacological profiling: muscarinic M2 receptor ligand binding
# Conditions: compound at 10 μM, in duplicate; ligand binding to cell membranes; read-out: Muscarinic M2 percent inhibition
row,Compound,inhibition at 10 µM [%]
1,COc1cc2nc3c(c(NC4CCN(C(C)C)CC4)c2cc1OC)CCC3,78
2,COc1cc2c(NC(C)C)c3c(nc2cc1OCCCN1CCCC1)CCC3 [drawing 582],51
3,CCNc1c2c(nc3cc(OCCCN4CCCC4)c(OC)cc13)CCC2 [drawing 583],62
